US7585871B2, “Phenanthridine carbonyl phenols” (Wyeth, priority 2004, dated 2009)

Tests used:
human ERα [1] = molecular target: T1, human ERα (Homo sapiens, UniProt P03372); assay: IL-6 luciferase (IL6-luc) assay in ERα infected HAECT-1 cells; format: cell-based; conditions: for IC50: ERα infected HAECT-1 cells, IL-1β, Ad5-IL-6(1250 bp).Luc virus, 15-20 h; for IL6-luc (% E2): efficacy relative to E2, value in parentheses after the IC50
T1 construct: expressed in transfected cells; host or cells: HAECT-1 cells (immortalized human aortic endothelial cells) infected with Ad5-wt-hERα adenovirus
T1 sequence (P03372 1-595): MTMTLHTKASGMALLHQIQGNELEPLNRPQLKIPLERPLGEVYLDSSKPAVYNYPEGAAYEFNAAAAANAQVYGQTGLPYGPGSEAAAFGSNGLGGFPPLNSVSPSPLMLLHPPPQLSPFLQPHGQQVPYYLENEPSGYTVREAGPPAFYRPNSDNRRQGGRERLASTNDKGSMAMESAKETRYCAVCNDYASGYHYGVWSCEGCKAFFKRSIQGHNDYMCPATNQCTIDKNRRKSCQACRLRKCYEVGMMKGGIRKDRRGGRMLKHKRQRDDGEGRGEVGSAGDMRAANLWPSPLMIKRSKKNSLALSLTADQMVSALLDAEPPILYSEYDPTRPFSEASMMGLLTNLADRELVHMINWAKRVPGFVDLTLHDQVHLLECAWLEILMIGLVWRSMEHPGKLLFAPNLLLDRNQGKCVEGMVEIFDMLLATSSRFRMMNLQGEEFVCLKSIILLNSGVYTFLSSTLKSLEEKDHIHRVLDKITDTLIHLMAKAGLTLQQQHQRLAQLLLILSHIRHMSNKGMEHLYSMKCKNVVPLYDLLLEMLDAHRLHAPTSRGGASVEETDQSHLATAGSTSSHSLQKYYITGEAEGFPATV
Procedure: (§1) After four hours, cells were washed with EBM-BSA and incubated overnight in the same medium. Following overnight incubation, cells were washed with EBM-BSA and infected for 2 hours with 6 ml of a 1:10 dilution of Ad5-3x(NFκB).Luc virus (Adenovirus luciferase expression vector driven by 3 repeats of the MHC NFκb site 5′ to the thymidine kinase promoter) in EBM-BSA. After two hours, cells were washed and incubated at 34° C. for 1 hour. […] Control (no ER infection) cells were processed as above without Ad5-wt-hERα virus infection.
(§2) ERα infected HAECT-1 cells or control cells were thawed, diluted 42× in warm EBM-BSA, plated into 96-well plates at 0.1 ml/well and incubated for 4 h at 34° C. […] After 15-20 h, cells are lysed with 50 ul of Promega Cell Culture Lysis reagent for ˜5 min at room temp on shaker. After lysing, 15 ul of lysate is transferred to luminometer plates for luciferase determination. […] Creatine kinase was determined from the rate of increase in A340 following addition of 100 uL of CK assay reagent (Sigma, cat. No 47-10) to the remainder of the cell lysate.
(§3) For IC50 and EC50 calculations, mean IL-6, luciferase or CK values versus log10 of the compound concentration were fitted to a four parameter logistic equation. The IC50/EC50 value, ‘Hill slope’, upper and lower limits of the curve were iteratively estimated.

human ERα [2] = molecular target: T1, human ERα; assay: Creatine kinase (CK) assay in ERα infected HAECT-1 cells; format: cell-based; conditions: for EC50: creatine kinase in lysate of ERα infected HAECT-1 cells; for CK (% E2): efficacy relative to E2, value in parentheses after the EC50
Procedure: as §1, §2, §3

Compound	melting point	IC50 (human ERα [1])	IL6-luc (% E2) (human ERα [1])	EC50 (human ERα [2])	CK (% E2) (human ERα [2])	CK (% E2) at a single concentration (human ERα [2]; @ 1 μM)
CC1c2cc(F)ccc2-c2ccc(F)cc2N1C(=O)c1ccc(O)cc1 (racemic) [Example 42, 4-[(3,8-difluoro-6-methylphenanthridin-5(6H)-yl)carbonyl]phenol]	193 to 195 °C	4.5 nM	95%	90 nM	37%	–
C[C@@H]1c2ccccc2-c2ccc(F)cc2N1C(=O)c1ccc(O)cc1 (single isomer, unassigned) [Example 37]	235.7 to 236.8 °C	6 nM	114%	28 nM	20%	–
C[C@@H]1c2ccccc2-c2ccc(F)cc2N1C(=O)c1ccc(O)cc1O (single isomer, unassigned) [Example 40]	184 to 187 °C	1 nM	107%	8 nM	20%	–
CC[C@@H]1c2cc(F)ccc2-c2ccccc2N1C(=O)c1cccc(O)c1 [Example 21, 3-{[(6R)-6-ethyl-8-fluorophenanthridin-5(6H)-yl]carbonyl}phenol]	101 to 102 °C	40 nM	134%	–	–	50% @ 1 μM
CC[C@@H]1c2cc(F)ccc2-c2ccccc2N1C(=O)c1ccc(O)cc1O [Example 22, 4-{[(6R)-6-ethyl-8-fluorophenanthridin-5(6H)-yl]carbonyl}benzene-1,3-diol]	98 to 100 °C	2 nM	106%	3 nM	38%	–
C[C@@H]1c2ccccc2-c2ccc(Cl)cc2N1C(=O)c1ccc(O)cc1 [Example 28, 4-{[(6R)-3-chloro-6-methylphenanthridin-5(6H)-yl]carbonyl}phenol]	273.5 to 276 °C	6 nM	120%	69 nM	32%	–
